Data reported in patent publication US5194432A, “Cephem compounds” (Fujisawa Pharmaceutical Co., Ltd., priority 1985, dated 1993).
In brackets after ≈: the same amount, converted by molar mass.

How the values were obtained:
Type in all cases: cell-based
[1] = test system: E. coli 31; experiment: In vitro antibacterial activity, two-fold agar-plate dilution method (MIC), E. coli 31; settings: Escherichia coli, heart infusion agar, 10^6 viable cells per ml, 37° C., 20 hours, read-out: MIC (minimal inhibitory concentration)
Description: (§1) In vitro antibacterial activity was determined by the two-fold agar-plate dilution method as described below.
(§2) One loopful of an overnight culture of each test strain in Trypticase-soy broth (10^6 viable cells per ml) was streaked on heart infusion agar (HI-agar) containing graded concentrations of representative test compound, and the minimal inhibitory concentration (MIC) was expressed in terms of μg/ml after incubation at 37° C. for 20 hours.

[2] = test system: P. mirabilis 1; experiment: In vitro antibacterial activity, two-fold agar-plate dilution method (MIC), P. mirabilis 1; settings: Proteus mirabilis, heart infusion agar, 10^6 viable cells per ml, 37° C., 20 hours, read-out: MIC (minimal inhibitory concentration)
Description: as §1, §2

[3] = test system: P. vulgaris IAM1025; experiment: In vitro antibacterial activity, two-fold agar-plate dilution method (MIC), P. vulgaris IAM1025; settings: Proteus vulgaris, heart infusion agar, 10^6 viable cells per ml, 37° C., 20 hours, read-out: MIC (minimal inhibitory concentration)
Description: as §1, §2

Row | MIC [1] [µg/mL] | MIC [2] [µg/mL] | MIC [3] [µg/mL] | SMILES
1 | ≤ 0.025 | 0.05 (≈ 0.0987 µM) | ≤ 0.025 | CO/N=C(\C(=O)N[C@@H]1C(=O)N2C(C(=O)[O-])=C(C[n+]3cc(C)c(N)n3C)CS[C@H]12)c1csc(N)n1 [Compound C, 7β-[2-(2-Aminothiazol-4-yl)-2-methoxyiminoacetamido]-3-(3-amino-2,4-dimethyl-1-pyrazolio)methyl-3-cephem-4-carboxylate (syn isomer)]
2 | < 0.025 | 0.05 (≈ 0.0974 µM) | 0.05 (≈ 0.0974 µM) | Cn1ccc[n+]1CC1=C(C(=O)[O-])N2C(=O)[C@@H](NC(=O)/C(=N\OC(F)F)c3csc(N)n3)[C@H]2SC1 [Compound A, 7β-[2-(2-Aminothiazol-4-yl)-2-(difluoromethoxyimino)acetamido]-3-(2-methyl-1-pyrazolio)methyl-3-cephem-4-carboxylate (syn isomer)]
3 | ≤ 0.025 | 0.05 (≈ 0.0922 µM) | ≤ 0.025 | Cc1c[n+](CC2=C(C(=O)[O-])N3C(=O)[C@@H](NC(=O)/C(=N\OC(F)F)c4csc(N)n4)[C@H]3SC2)n(C)c1N [Compound D, 7β-[2-(2-Aminothiazol-4-yl)-2-(difluoromethoxyimino)acetamido]-3-(3-amino-2,4-dimethyl-1-pyrazolio)methyl-3-cephem-4-carboxylate (syn isomer)]
4 | 0.05 (≈ 0.0944 µM) | 0.2 (≈ 0.378 µM) | 0.05 (≈ 0.0944 µM) | Cn1ccc[n+]1CC1=C(C(=O)[O-])N2C(=O)[C@@H](NC(=O)/C(=N\OC3C=CCC3)c3csc(N)n3)[C@H]2SC1 (stereo partly drawn) [Compound B, 7β-[2-(2-Aminothiazol-4-yl)-2-(2-cyclopenten-1-yloxyimino)acetamido]-3-(2-methyl-1-pyrazolio)methyl-3-cephem-4-carboxylate (syn isomer)]
